Experimental data published in patent publication US9771394B2, “Antimicrobial polymyxins for treatment of bacterial infections” (priority 2014, dated 2017).
pIC50: −log10 of the molar value. Where two headings read alike, the source gives them in different places. Starred links: 1 amine or outer side, 2 acyl side, 3 side chain; linkers in the order of their positions; H or OH if unused. Positions of bridges follow the written chain, without caps; N, C: chain ends. Non-standard residues stand in square brackets, D forms with d. Residues, ends and D or L forms follow the SMILES beside them. ξ: configuration not given here. *: point of attachment. X8 = NCC[C@H](OC(=O)Cc1ccc(-c2ccccc2)cc1)C(=O)*; X6 = NCC[C@H](OC(=O)c1ccc(-c2ccccc2)cc1)C(=O)*; X9 = CCC(C)(C)C(=O)OCCC(=O)O[C@@H](CCN)C(=O)*; X3 = CCCCCCCC(=O)O[C@@H](CCN)C(=O)*; X11 = CCCCOP(=O)(CC(=O)*)OCCCC; Thr(3ξ) = CC(O)[C@H](N)C(=O)O; X10 = O=C(C1CNCCN1[*:1])[*:2]; X7 = CC(=O)O[C@@H](CCN)C(=O)*; X1 = CCC(C)(C)C(=O)OCCC(=O)*; X2 = CCCC(C)OC(=O)CCC(=O)*; Dab = NCC[C@H](N)C(=O)O; X4 = CCCCOC(=O)CCC(=O)*; Dap = NC[C@H](N)C(=O)O

How the values were obtained:
E. coli WECO 1003 = format: cell-based, Escherichia coli
Source text: (§1) In vitro activity of compounds provided herein may be assessed by standard testing procedures such as the determination of minimum inhibitory concentration (MIC, μg/mL) just as described in “Methods for Dilution Antimicrobial Susceptibility Tests for Bacteria That Grow Aerobically; Approved Standard—Ninth Edition,” published in 2012 by the Clinical and Laboratory Standards Institute, Wayne, Pa., USA. Thus, bacterial colonies grown overnight on Mueller-Hinton Agar plate were selected and suspended in sterile saline to a turbidity of about 80% transmittance, as measured by a spectrophotometer. The suspension was diluted 200-fold with cation-adjusted Mueller-Hinton broth to serve as the inoculum for testing. Two-fold serial dilutions of the test compound were performed in 96-well master plate to arrive at desired concentration. Samples of 10 microliter from each well of the master plate were transferred into respective wells of 96-well assay plate. Bacterial inoculum (90 microliter) was introduced into each well of the assay plate. The assay plate was placed in the incubator at 35° C. for about 24 h (without agitation) followed by the MIC determination. MIC values were determined based on the presence or absence of bacterial growth in wells at the given test agent concentration. MIC value is defined as the lowest concentration of test antibiotic that prevents visible bacterial growth.
(§2) The useful activity of exemplary compounds described herein against Gram-negative pathogens Pseudomonas aeruginosa, Escherichia coli, or Klebsiela pneumoniae is illustrated by the MIC data of Table 1.

P. aeruginosa PAE 1001 = format: cell-based, Pseudomonas aeruginosa
Source text: as §1, §2

K. pneumoniae KPN1004 = format: cell-based, Klebsiela pneumoniae
Source text: as §1, §2

P. aeruginosa = P. aeruginosa thigh infection mouse model, IV dosing; format: in vivo, Pseudomonas aeruginosa; details: CFU change at 12 h vs no treatment control, PMB values in parenthesis side-by-side
Source text: A lower ED50 value indicates a higher therapeutic efficacy of the drug. The number of surviving animals (from the total number of infected animals used at a given drug dose) is another indicator of efficacy. […] In thigh and lung infection models, a greater reduction in the bacterial colony-forming units (CFU) indicates stronger beneficial therapeutic effect (more bacterial eradication), while a lower CFU reduction or an increase in CFU value indicates a lower effect (less bacterial eradication), or an absence of the therapeutic effect.

[1] = Stability in human plasma at 37° C.; format: in vitro ADME
Procedure: Exemplary compounds of this invention were tested for stability in human plasma at 37° C., replicating in vivo conditions of mammalian blood. Plasma stability for select compounds was performed as follows. Human plasma (K2 EDTA) was obtained from Bioreclamation. The assay was carried out in 96-well microtiter plates. Test compounds were incubated in duplicate at 37° C. in the presence of plasma. Reaction mixtures (25 μL) contained a final concentration of 25 μM test compound. The extent of metabolism was calculated as the disappearance of the test compound over time. Eucatropine was included as a positive control to verify assay performance. At each given time point, 100 μL of quench solution (100% MeCN with 0.1% HCOOH) with internal standard was transferred to each well. Plates were sealed, vortexed, and centrifuged at 4° C. for 15 minutes at 4,000 rpm. The supernatant was transferred to fresh plates for LC/MS/MS analysis. The formation of a potential metabolite was monitored in all samples. The samples were analyzed on LC/MS/MS using an AB Sciex API 4000 instrument, coupled to a Shimadzu LC-20AD LC Pump system. Analytical samples were separated using a Waters Atlantis T3 dC18 reverse phase HPLC column (20 mm×2.1 mm) at […] a flow rate of 0.5 mL/min, eluting with 0.1% aq. HCOOH and 0.1% HCOOH in MeCN (using gradient from 2% to 98% of the latter). Remaining test compounds were quantified via MS/MS ion current.

human HK-2 cell = test: Human HK-2 cell cytotoxicity assay (in vitro nephrotoxicity); format: cell-based
Source text: Nephrotoxicity of polymyxins could be determined in vitro using human renal […] (HK-2) cytotoxicity assay, analogously to that described, for example, by Keirstead et al. in Toxicol. Sci., 2014, vol. 137, pp. 278-291. In vivo, nephrotoxicity could be determined using urine biomarker assays, such as clinically validated neutrophil gelatinase-associated lipocalin (NGAL) assay described, for example by Devarajan in Scand. J. Clin. Lab. Invest. Suppl., 2008, vol. […], pp. 89-94.

[2] = 35° C., about 24 h, cation-adjusted Mueller-Hinton broth

| Structure (SMILES) | Antibacterial activity (MIC) E. coli WECO 1003 (E. coli WECO 1003; WECO 1003, 24 h) [µg/mL] | Antibacterial activity (MIC) P. aeruginosa PAE 1001 (P. aeruginosa PAE 1001; PAE 1001, 24 h) [µg/mL] | Antibacterial activity (MIC) K. pneumoniae KPN1004 (K. pneumoniae KPN1004; KPN1004, 24 h) [µg/mL] | also measured |
| --- | --- | --- | --- | --- |
| CC(C)C[C@@H]1NC(=O)[C@@H](Cc2ccccc2)NC(=O)[C@H](CCN)NC(=O)[C@@H](NC(=O)[C@H](CCN)NC(=O)[C@@H](NC(=O)[C@H](CCN)OC(=O)Cc2ccc(-c3ccccc3)cc2)C(C)O)CCNC(=O)[C@H](C(C)O)NC(=O)[C@H](CCN)NC(=O)[C@H](CCN)NC1=O (stereo partly drawn) [Example 2] (X8-[Thr(3ξ)][Dab][Dab][Dab][dF]L[Dab][Dab][Thr(3ξ)]; lactam 3-C) | 8 | 4 | 2 |  |
| CC(C)C[C@@H]1NC(=O)[C@@H](Cc2ccccc2)NC(=O)[C@H](CCN)NC(=O)[C@@H](NC(=O)[C@H](CCN)NC(=O)[C@@H](NC(=O)[C@H](CCN)OC(=O)c2ccc(-c3ccccc3)cc2)C(C)O)CCNC(=O)[C@H](C(C)O)NC(=O)[C@H](CCN)NC(=O)[C@H](CCN)NC1=O (stereo partly drawn) [Example 3] (X6-[Thr(3ξ)][Dab][Dab][Dab][dF]L[Dab][Dab][Thr(3ξ)]; lactam 3-C) | 4 | 4 | 4 |  |
| CCCCOC(=O)CCC(=O)N[C@@H](CCN)C(=O)N[C@H](C(=O)N[C@@H](CCN)C(=O)N[C@H]1CCNC(=O)[C@H](C(C)O)NC(=O)[C@H](CCN)NC(=O)[C@H](CCN)NC(=O)[C@H](CC(C)C)NC(=O)[C@@H](Cc2ccccc2)NC(=O)[C@H](CCN)NC1=O)C(C)O (stereo partly drawn) [Example 7] (X4-[Dab][Thr(3ξ)][Dab][Dab][Dab][dF]L[Dab][Dab][Thr(3ξ)]; lactam 4-C) | 4 | 4 | 2 | P. aeruginosa Thigh model, IV dosing ΔlogCFU at 5 mg/kg (P. aeruginosa): −0.50; remaining at 1 h, 25 μM ([1]; human, plasma): 49%; remaining at 4 h, 25 μM ([1]; human, plasma): 15% |
| CCCCOP(=O)(CC(=O)N[C@@H](CCN)C(=O)N[C@H](C(=O)N[C@@H](CCN)C(=O)N[C@H]1CCNC(=O)[C@H](C(C)O)NC(=O)[C@H](CCN)NC(=O)[C@H](CCN)NC(=O)[C@H](CC(C)C)NC(=O)[C@@H](Cc2ccccc2)NC(=O)[C@H](CCN)NC1=O)C(C)O)OCCCC (stereo partly drawn) [Example 30] (X11-[Dab][Thr(3ξ)][Dab][Dab][Dab][dF]L[Dab][Dab][Thr(3ξ)]; lactam 4-C) |  |  |  | Antibacterial activity (MIC) E. coli WECO 1003 (E. coli WECO 1003; [2]): 2 µg/mL; Antibacterial activity (MIC) P. aeruginosa PAE 1001 (P. aeruginosa PAE 1001; [2]): 2 µg/mL; Antibacterial activity (MIC) K. pneumoniae KPN1004 (K. pneumoniae KPN1004; [2]): 4 µg/mL |
| CCCC(C)OC(=O)CCC(=O)N1CCNCC1C(=O)N[C@H](C(=O)N[C@@H](CCN)C(=O)N[C@H]1CCNC(=O)[C@H](C(C)O)NC(=O)[C@H](CCN)NC(=O)[C@H](CCN)NC(=O)[C@H](CC(C)C)NC(=O)[C@@H](Cc2ccccc2)NC(=O)[C@H](CCN)NC1=O)C(C)O (stereo partly drawn) [Example 31] (X2-[X10][Thr(3ξ)][Dab][Dab][Dab][dF]L[Dab][Dab][Thr(3ξ)]; lactam 4-C) | 8 | 8 | 8 |  |
| CCC(C)(C)C(=O)OCCC(=O)O[C@@H](CCN)C(=O)N[C@H](C(=O)N[C@@H](CCN)C(=O)N[C@H]1CCNC(=O)[C@H](C(C)O)NC(=O)[C@H](CCN)NC(=O)[C@H](CCN)NC(=O)[C@H](CC(C)C)NC(=O)[C@@H](Cc2ccccc2)NC(=O)[C@H](CCN)NC1=O)C(C)O (stereo partly drawn) [Example 34] (X9-[Thr(3ξ)][Dab][Dab][Dab][dF]L[Dab][Dab][Thr(3ξ)]; lactam 3-C) | 4 | 4 | 4 |  |
| CCC(C)(C)C(=O)OCCC(=O)N[C@@H](CN)C(=O)N[C@H](C(=O)N[C@@H](CCN)C(=O)N[C@H]1CCNC(=O)[C@H](C(C)O)NC(=O)[C@H](CCN)NC(=O)[C@H](CCN)NC(=O)[C@H](CC(C)C)NC(=O)[C@@H](Cc2ccccc2)NC(=O)[C@H](CCN)NC1=O)C(C)O (stereo partly drawn) [Example 35] (X1-[Dap][Thr(3ξ)][Dab][Dab][Dab][dF]L[Dab][Dab][Thr(3ξ)]; lactam 4-C) | 1 | 4 | 4 |  |
| CC(=O)O[C@@H](CCN)C(=O)N[C@H](C(=O)N[C@@H](CCN)C(=O)N[C@H]1CCNC(=O)[C@H](C(C)O)NC(=O)[C@H](CCN)NC(=O)[C@H](CCN)NC(=O)[C@H](CC(C)C)NC(=O)[C@@H](Cc2ccccc2)NC(=O)[C@H](CCN)NC1=O)C(C)O (stereo partly drawn) [Example 43] (X7-[Thr(3ξ)][Dab][Dab][Dab][dF]L[Dab][Dab][Thr(3ξ)]; lactam 3-C) | 8 | 8 | >32 |  |
| CCCCCCCC(=O)O[C@@H](CCN)C(=O)N[C@H](C(=O)N[C@@H](CCN)C(=O)N[C@H]1CCNC(=O)[C@H](C(C)O)NC(=O)[C@H](CCN)NC(=O)[C@H](CCN)NC(=O)[C@H](CC(C)C)NC(=O)[C@@H](Cc2ccccc2)NC(=O)[C@H](CCN)NC1=O)C(C)O (stereo partly drawn) [Reference Example 1, reference compound] (X3-[Thr(3ξ)][Dab][Dab][Dab][dF]L[Dab][Dab][Thr(3ξ)]; lactam 3-C) | 4 | 8 | 2 | P. aeruginosa Thigh model, IV dosing ΔlogCFU at 5 mg/kg (P. aeruginosa): −1.92; formation of the expected metabolite (compound of Example 44) by MS analysis [1]: no formation; metabolism in human plasma [1]: no discernable metabolism; remaining at 4 h, 25 μM ([1]; human, plasma): 100% |
| CC(C)C[C@@H]1NC(=O)[C@@H](Cc2ccccc2)NC(=O)[C@H](CCN)NC(=O)[C@@H](NC(=O)[C@H](CCN)NC(=O)[C@@H](N)[C@@H](C)O)CCNC(=O)[C@H]([C@@H](C)O)NC(=O)[C@H](CCN)NC(=O)[C@H](CCN)NC1=O [Reference Example 40, Polymyxin B nonapeptide, reference compound] (H-T[Dab][Dab][Dab][dF]L[Dab][Dab]T; lactam 3-C) | >32 | >32 | >32 | HK-2 cytotoxicity class (human HK-2 cell): Class 4; pIC50 (human HK-2 cell): < 3.70 |
